Results on five compounds are retold here after the NIST ThermoML archive (doi:10.1021/acs.jced.6b00813).

Numbers after ± are expanded uncertainties.

Data set [1] in a line: wn = mass fraction of the nth substance listed. The conditions noted are these: 101.3 kPa, Liquid, Pycnometric method.
The conditions of data set [2]: Crystal; Titration method.

As usually defined, the mass density is mass per unit of volume. Consider `O` [water] + O=[PH2][O-].O=[PH2][O-].[Ca+2], for which the mass density in data set [1] (273.15 K, w2 = 0) is 999 ± 4 kg/m3.
For the compound `O` [water], the Normal melting temperature in data set [2] turned out to be 0.00 ± 0.77 °C.
`[Ca+2].[Cl-].[Cl-]` [calcium chloride] + O: the mass density in data set [1] (273.15 K, w1 = 0.373) was 1427 ± 2 kg/m3.
`O=[PH2][O-].[Na+]` [sodium phosphinate] + O: the mass density in data set [1] (273.15 K, w1 = 0.4776) is 1381 ± 2 kg/m3.
For the compound `O=[PH2][O-].O=[PH2][O-].[Ca+2]` [calcium hypophosphite] + O, the mass density in data set [1] (268.75 K, w1 = 0.1397) was 1133 ± 2 kg/m3; in data set [1] (270.15 K, w1 = 0.0909) it was 1089 ± 2 kg/m3; in data set [1] (271.4 K, w1 = 0.0476), 1047 ± 2 kg/m3; in data set [1] (272.15 K, w1 = 0.0244) it was 1024 ± 2 kg/m3; in data set [1] (273.15 K, w1 = 0.1381) it was 1132 ± 2 kg/m3; in data set [1] (283.15 K, w1 = 0.1362) it was 1131 ± 2 kg/m3. For the same compound, the mass density in data set [1] (293.15 K, w1 = 0.1341) is listed as 1128 ± 2 kg/m3; in data set [1] (303.15 K, w1 = 0.1322), 1125 ± 2 kg/m3; in data set [1] (313.15 K, w1 = 0.1304), 1121 ± 2 kg/m3; in data set [1] (323.15 K, w1 = 0.1293), 1117 ± 2 kg/m3; in data set [1] (333.15 K, w1 = 0.1292), 1114 ± 2 kg/m3; in data set [1] (343.15 K, w1 = 0.1292), 1111 ± 3 kg/m3. Moreover, the mass density was 1107 ± 3 kg/m3 in data set [1] (353.15 K, w1 = 0.1295); 1103 ± 2 kg/m3 in data set [1] (363.15 K, w1 = 0.1297); 1103 ± 2 kg/m3 in data set [1] (373.15 K, w1 = 0.1302); 1103 ± 2 kg/m3 in data set [1] (376.95 K, w1 = 0.1302).
